In ChEMBL document CHEMBL5696442, “Discovery of type II inhibitors of TGFβ-activated kinase 1 (TAK1) and mitogen-activated protein kinase kinase kinase kinase 2 (MAP4K2)” (J Med Chem, 2015):
Calls of active or inactive are those of the source. The calls are words filed in the database; no cut-off is given here.

How the values were obtained:
[1] = target: T1, Acylglycerol kinase, mitochondrial (Homo sapiens) (UniProt Q53H12); assay: Inhibition of AGK ATP labeling site in human Huh-7 cells at 10 uM by KiNativ Profiling analysis relative to control; format: cell-based
T1 sequence (whole entry): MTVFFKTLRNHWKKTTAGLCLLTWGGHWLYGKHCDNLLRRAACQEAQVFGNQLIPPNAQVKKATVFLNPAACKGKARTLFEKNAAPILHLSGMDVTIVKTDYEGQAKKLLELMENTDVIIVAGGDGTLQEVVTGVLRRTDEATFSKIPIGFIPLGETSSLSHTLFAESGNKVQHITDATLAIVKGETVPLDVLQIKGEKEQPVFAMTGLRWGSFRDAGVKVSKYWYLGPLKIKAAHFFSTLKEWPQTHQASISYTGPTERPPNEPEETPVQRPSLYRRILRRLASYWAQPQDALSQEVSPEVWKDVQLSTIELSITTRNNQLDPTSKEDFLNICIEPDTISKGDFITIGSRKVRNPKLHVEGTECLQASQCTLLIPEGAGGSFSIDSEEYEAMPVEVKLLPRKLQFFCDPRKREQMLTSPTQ

[2] = target: T2, Mitogen-activated protein kinase kinase kinase 15 (Homo sapiens) (UniProt Q6ZN16); assay: Inhibition of MAP3K15 Lys1 labeling site harbouring IAIKEIPER in human A-375 cells at 5 uM by KiNativ Profiling analysis relative to control; format: cell-based
T2 sequence (whole entry): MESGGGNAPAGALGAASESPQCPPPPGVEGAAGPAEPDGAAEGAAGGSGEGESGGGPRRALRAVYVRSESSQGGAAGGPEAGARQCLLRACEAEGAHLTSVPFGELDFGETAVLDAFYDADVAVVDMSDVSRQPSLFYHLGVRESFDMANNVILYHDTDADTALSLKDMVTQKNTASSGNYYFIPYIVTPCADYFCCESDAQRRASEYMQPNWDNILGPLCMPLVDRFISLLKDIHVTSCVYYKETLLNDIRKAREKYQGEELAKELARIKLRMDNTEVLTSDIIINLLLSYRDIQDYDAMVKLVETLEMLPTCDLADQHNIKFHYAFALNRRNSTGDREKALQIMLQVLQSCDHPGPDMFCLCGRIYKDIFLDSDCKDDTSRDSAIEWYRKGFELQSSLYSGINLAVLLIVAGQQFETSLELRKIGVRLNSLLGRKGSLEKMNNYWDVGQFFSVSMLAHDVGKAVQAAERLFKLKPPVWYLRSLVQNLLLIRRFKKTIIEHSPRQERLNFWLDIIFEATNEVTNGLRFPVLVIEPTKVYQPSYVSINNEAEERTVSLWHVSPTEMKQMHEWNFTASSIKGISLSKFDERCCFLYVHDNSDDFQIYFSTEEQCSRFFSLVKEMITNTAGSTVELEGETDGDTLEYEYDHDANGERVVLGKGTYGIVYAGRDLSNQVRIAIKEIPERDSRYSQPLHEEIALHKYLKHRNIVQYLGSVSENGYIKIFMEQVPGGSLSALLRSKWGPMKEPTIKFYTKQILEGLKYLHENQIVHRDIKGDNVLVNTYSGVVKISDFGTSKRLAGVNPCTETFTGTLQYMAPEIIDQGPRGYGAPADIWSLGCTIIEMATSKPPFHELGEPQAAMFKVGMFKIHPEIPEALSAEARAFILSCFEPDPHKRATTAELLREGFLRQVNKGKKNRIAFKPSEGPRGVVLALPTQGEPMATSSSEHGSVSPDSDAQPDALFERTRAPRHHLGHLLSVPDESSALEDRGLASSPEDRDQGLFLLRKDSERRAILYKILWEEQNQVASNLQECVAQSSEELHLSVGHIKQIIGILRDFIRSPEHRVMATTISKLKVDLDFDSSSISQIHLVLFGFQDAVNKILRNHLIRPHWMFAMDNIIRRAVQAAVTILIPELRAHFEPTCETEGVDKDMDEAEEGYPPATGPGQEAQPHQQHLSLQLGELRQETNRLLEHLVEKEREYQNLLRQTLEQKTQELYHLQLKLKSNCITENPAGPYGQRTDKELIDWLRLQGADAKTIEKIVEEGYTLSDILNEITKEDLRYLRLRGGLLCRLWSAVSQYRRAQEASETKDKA

[3] = target: T3, Scaffold protein ILK (Homo sapiens) (UniProt Q13418); assay: Inhibition of ILK Lys1 labeling site in human Huh-7 cells at 1 uM by KiNativ Profiling analysis relative to control; format: cell-based
T3 sequence (whole entry): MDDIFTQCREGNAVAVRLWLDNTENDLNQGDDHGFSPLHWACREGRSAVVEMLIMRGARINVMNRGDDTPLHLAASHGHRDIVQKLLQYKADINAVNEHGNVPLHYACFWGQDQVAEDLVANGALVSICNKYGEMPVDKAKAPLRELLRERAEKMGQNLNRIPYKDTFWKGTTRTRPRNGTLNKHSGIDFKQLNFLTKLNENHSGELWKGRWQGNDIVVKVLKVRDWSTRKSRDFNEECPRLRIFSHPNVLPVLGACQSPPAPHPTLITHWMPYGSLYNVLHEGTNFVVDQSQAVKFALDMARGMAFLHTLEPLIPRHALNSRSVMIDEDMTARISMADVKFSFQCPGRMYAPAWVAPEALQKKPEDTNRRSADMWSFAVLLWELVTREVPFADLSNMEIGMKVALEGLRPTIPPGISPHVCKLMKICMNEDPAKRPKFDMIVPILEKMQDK

[4] = target: T4, Phosphatidylinositol 5-phosphate 4-kinase type-2 gamma (Homo sapiens) (UniProt Q8TBX8); assay: Inhibition of PIP4K2C ATP labeling site harbouring TLVIKEVSSEDIADMHSNLSNYHQYIVK in human Huh-7 cell lysate at 1 uM by KiNativ Profiling analysis relative to control; format: subcellular
T4 sequence (whole entry): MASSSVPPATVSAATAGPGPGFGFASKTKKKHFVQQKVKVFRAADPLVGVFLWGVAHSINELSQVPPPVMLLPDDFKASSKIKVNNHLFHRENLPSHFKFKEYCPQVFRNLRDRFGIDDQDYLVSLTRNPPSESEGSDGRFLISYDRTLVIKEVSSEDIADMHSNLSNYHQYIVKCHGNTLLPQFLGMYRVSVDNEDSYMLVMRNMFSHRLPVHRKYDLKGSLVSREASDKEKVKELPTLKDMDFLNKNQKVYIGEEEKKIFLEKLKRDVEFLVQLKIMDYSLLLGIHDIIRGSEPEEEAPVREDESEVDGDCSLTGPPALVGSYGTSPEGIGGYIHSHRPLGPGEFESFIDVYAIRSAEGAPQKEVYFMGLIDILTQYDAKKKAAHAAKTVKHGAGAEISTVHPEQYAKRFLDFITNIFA

[5] = target: Ephrin type-A receptor 2 (Homo sapiens, UniProt P29317); assay: Inhibition of EphA2 ACT labeling site in human Huh-7 cell lysate at 1 uM by KiNativ Profiling analysis relative to control; format: subcellular
Ephrin type-A receptor 2, sequence (P29317 whole entry): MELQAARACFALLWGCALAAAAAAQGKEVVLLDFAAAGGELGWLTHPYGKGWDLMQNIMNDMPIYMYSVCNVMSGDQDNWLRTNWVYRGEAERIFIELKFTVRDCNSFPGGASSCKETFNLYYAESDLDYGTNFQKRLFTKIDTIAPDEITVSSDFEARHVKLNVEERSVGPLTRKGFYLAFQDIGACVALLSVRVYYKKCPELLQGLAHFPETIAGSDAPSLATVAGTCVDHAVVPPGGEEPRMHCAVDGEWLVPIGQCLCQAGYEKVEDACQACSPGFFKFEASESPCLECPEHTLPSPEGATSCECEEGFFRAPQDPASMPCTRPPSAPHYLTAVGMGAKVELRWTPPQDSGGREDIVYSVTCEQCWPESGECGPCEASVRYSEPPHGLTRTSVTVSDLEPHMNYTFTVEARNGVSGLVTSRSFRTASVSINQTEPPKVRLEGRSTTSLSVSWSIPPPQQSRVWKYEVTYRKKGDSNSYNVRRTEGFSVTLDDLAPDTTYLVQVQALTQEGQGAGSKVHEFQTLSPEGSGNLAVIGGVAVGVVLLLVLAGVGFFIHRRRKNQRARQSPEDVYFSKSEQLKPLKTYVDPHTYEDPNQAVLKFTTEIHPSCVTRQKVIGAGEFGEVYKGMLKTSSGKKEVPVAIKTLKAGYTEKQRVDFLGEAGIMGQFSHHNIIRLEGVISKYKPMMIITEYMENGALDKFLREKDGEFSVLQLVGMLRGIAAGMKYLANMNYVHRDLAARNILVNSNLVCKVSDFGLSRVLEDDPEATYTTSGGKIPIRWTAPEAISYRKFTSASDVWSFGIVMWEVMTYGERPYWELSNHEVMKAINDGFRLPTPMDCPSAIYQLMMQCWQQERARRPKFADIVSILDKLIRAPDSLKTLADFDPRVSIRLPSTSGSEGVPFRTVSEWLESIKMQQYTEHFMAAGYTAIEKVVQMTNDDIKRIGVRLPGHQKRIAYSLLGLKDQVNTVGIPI

[6] = target: Mitogen-activated protein kinase kinase kinase 9 (Homo sapiens) (UniProt P80192); assay: Inhibition of MLK1 (unknown origin) at 1 uM by Ambit Kinomescan binding assay relative to control; values are per cent of control
Mitogen-activated protein kinase kinase kinase 9 (Homo sapiens), sequence (P80192 whole entry, looked up): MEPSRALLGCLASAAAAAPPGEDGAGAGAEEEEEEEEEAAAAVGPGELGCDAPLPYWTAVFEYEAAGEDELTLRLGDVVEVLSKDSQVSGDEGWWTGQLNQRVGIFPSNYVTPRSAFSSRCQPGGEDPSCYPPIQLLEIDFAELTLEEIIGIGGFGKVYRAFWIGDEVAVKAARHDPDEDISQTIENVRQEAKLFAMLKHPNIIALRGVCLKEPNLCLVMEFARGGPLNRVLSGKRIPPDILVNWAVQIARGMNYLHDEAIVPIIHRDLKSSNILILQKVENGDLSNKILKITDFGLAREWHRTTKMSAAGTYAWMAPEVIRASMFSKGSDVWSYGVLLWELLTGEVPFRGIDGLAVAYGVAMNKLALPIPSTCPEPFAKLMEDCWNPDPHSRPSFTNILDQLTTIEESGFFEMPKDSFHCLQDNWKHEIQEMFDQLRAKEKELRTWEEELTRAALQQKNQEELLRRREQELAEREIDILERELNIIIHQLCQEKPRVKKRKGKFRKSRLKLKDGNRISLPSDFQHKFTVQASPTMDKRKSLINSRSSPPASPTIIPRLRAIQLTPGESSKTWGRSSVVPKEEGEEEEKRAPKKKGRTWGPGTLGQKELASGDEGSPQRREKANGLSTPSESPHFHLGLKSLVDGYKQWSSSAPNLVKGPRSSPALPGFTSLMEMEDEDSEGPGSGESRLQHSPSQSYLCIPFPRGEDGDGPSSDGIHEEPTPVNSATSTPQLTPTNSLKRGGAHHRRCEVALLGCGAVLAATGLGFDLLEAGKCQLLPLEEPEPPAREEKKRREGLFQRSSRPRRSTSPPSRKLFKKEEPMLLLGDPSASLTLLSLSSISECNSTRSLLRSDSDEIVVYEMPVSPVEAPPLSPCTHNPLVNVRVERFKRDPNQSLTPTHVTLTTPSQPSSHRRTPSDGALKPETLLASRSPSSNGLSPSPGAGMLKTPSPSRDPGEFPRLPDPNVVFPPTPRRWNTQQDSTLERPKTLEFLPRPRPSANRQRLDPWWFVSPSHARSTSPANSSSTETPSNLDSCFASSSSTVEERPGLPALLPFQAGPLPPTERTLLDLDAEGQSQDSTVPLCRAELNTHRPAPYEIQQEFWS

SMILES: CCN1CCN(Cc2ccc(NC(=O)c3ccc(C)c(Oc4ccnc5[nH]ccc45)c3)cc2C(F)(F)F)CC1
- inhibition [1]: inactive
- inhibition [2]: -0.6%

SMILES: CNc1cc(Oc2cc(C(=O)Nc3cc(N4CCN(C)CC4)cc(C(F)(F)F)c3)ccc2C)ncn1
- inhibition [3]: -6.7%
- inhibition [4]: -3.6%
- inhibition [5]: 25.1%

SMILES: CCN1CCN(Cc2ccc(NC(=O)c3ccc(C)c(/C=C/c4cnc5[nH]ccc5c4OC)c3)cc2C(F)(F)F)CC1
- residual activity [6]: 4.7%
